Assay results as given in US7875598B2, “Compositions useful for the treatment of microbial infections” (The Regents of the University of California, priority 2004, dated 2011).
≈ marks a conversion by molar mass, not a printed value.

How the values were obtained:
[1] = test system: Vancomycin resistant Enterococci; assay: Sensitivity of Vancomycin resistant Enterococci; assay type: cell-based
[2] = test system: methicillin resistant Staphylococcus aureus; assay: Sensitivity of methicillin resistant Staphylococcus aureus; assay type: cell-based
S. mutans = assay: Anti-bacterial activity (MIC) against S. mutans; assay type: cell-based, Streptococcus mutans; conditions: for MIC: Streptococcus mutans
[3] = test system: Clinical isolated drug-resistant C. albicans; assay: Sensitivity of clinical isolated drug-resistant C. albicans; assay type: cell-based, Candida albicans
Description: (§1) Bioassays were conducted to further characterize these two compounds.

C. albicans = assay: Anti-fungal activity (MIC) against C. albicans; assay type: cell-based, Candida albicans; conditions: for MIC: Candida albicans
Description: The compositions of the present invention usually have an anti-microbial effect, e.g., anti-G^+ bacteria activity, anti-G^− bacteria activity, anti-fungus activity or effect on bacterial quorum sensing. Methods or assays for testing the anti-microbial activity of a composition are readily available to one skilled in the art. For example, compositions of the present invention can be incubated with a bacterial or fungous culture, and the bacterial or fungous growth can be subsequently examined with a plate reader. Compositions of the present invention can also be examined for their effect on bacterial quorum sensing using either an acyl-homoserine lactone quorum sensing reporter system or a luxS quorum sensing reporter system.
as §1

bacteria = assay: Enhancement of activity of other antibiotics (synergistic effect) in the bioassay; assay type: cell-based
Text: Perilla was selected for two types of bioactivity. […] The second is its ability to enhance other antibacterial activities through some kind of synergistic effect. When the crude extract was mixed with antibiotics in the bioassay, it could enhance the activity of other antibiotics at a concentration at least 10 times lower than its MIC.

SMILES	MIC (S. mutans)	sensitivity of clinical isolated drug-resistant C. albicans to treatment [3]	fungicidal effect (C. albicans)	MIC (C. albicans)	further results
C=C(C)[C@H](CC=C(C)C)Cc1c(O)cc(OC)c2c1O[C@H](c1ccc(O)cc1O)CC2=O [kurarinone, 2-(2,4-dihydroxyphenyl)-2,3-dihydro-7-hydroxy-5-methoxy-8-[5-methyl-2-(1-methylethenyl)-4-hexenyl]-4H-1-benzopyran-4-one]	4 mg/L (≈ 9.12 µM)	–	–	–	sensitivity of Vancomycin resistant Enterococci to the compound [1]: sensitive; sensitivity of methicillin resistant Staphylococcus aureus to the compound [2]: sensitive; bactericidal effect (S. mutans; organism not given): bactericidal effect; sensitivity of antimicrobial activity to environmental changes (S. mutans; pH (4.8-7.4), salt composition (Na, K, Ca), salt concentrations, oxygen levels (anaerobic and aerobic), temperature (120° C.)): insensitive
CC1OC(OC2C(O)[C@H](OC3OC(C)C(O)C(O)C3O)C(CO)O[C@H]2O[C@H]2CC[C@@]3(C)C(=CCC4C5CC6OC7(CC[C@@H](C)CO7)[C@@H](C)C6[C@@]5(C)CCC43)C2)C(O)C(O)C1O (stereo partly drawn) [Dioscin, (3β,25R)-spirost-5-en-3-yl O-6-deoxy-α-L-mannopyranosyl-(1→2)-O-[6-deoxy-α-L-mannopyranosyl-(1→4)]-β-D-glucopyranoside]	–	still sensitive	fungicidal effect	~4 mg/L (≈ 4.6 µM)	–
CC/C=C\C/C=C\C/C=C\CCCCCCCC(=O)O [Linolenic acid, (9Z,12Z,15Z)-9,12,15-octadecatrienoic acid]	10 mg/L (≈ 35.9 µM)	–	–	–	–
C=C(C)C1CC=C(C=O)CC1 (centres unmarked) [perillaldehyde, 4-(1-methylethenyl)-1-cyclohexene-1-carboxaldehyde]	10000 mg/L (≈ 66600 µM)	–	–	–	ability to enhance activity of other antibiotics (bacteria): enhance activity of other antibiotics in a dose-dependent manner
CC1OC(OC2[C@H](O[C@H]3CC[C@@]4(C)C(=CCC5C6CC7OC8(CC[C@@H](C)CO8)[C@@H](C)C7[C@@]6(C)CCC54)C3)OC(CO)[C@@H](O[C@@H]3O[C@@H](CO)[C@@H](O)[C@H]3O)[C@@H]2O)C(O)C(O)C1O (stereo partly drawn) [Polyphyllin D, (3β,25R)-spirost-5-en-3-yl O-α-L-arabinofuranosyl-(1→4)-O-[6-deoxy-α-L-mannopyranosyl-(1→2)]-β-D-glucopyranoside]	–	still sensitive	fungicidal effect	~2 mg/L (≈ 2.34 µM)	–
